Entries after “also recorded” stand apart in the source; their conditions may differ.
Legend:
[1] = test system: carcinoma cell lines (mammary, endometrial, ovarian, liver, colon, prostate, pancreatic); assay: ApoTox-Glo Triplex assay (viability, caspase 3/7, cytotoxicity) in carcinoma cell lines; format: cell-based, human; details: all tested cancer cell lines
Source text: NPB was subsequently evaluated against panel of normal immortalized mammary epithelial cells (MCF10A and MCF12A), normal hepatocytes (LO2), mammary carcinoma (BT549, MDA-MB-231, MCF7, T47D, BT474), endometrial cancer (Ishikawa, Ecc1, RL95-2, AN3), ovarian cancer (SK-OV-3, OVCAR-2, Caov-3, HEY C2, Ovca433), liver cancer (Hep3B, H2P, H2M), colon cancer (HCT116, DLD-1, Caco-2), prostate cancer (PC3, LNCaP, DU145) and pancreatic cancer (AsPC-1, BxPC-3) cells. […] Using a Laplacian-modified Naïve Bayes classifier, NPB is subjected to in silico analysis which anticipates the human target of NPB as BAD protein.
Effect of NPB (5 μM) on carcinoma cell viability including, mammary, endometrial, ovarian, liver, colon, prostate, and pancreatic carcinoma cell lines. (A) Cell viability (B) caspase 3/7 activities and (C) cytotoxicity were evaluated using ApoTox-GIo™ Triplex Assay Kit as described in methodology. Statistical significance was assessed by an unpaired two-tailed Student's t-test using GraphPad Prism5. The column represents mean of triplicate determinations; bars, ±SD. **P<0.001, *P<0.05. Note: RFU, relative fluorescence unit; RLU, relative luminescence unit, #; non-transformed, immortalized epithelial cells; MB-231, MDA-MB-231. […]

[2] = biological target: T1, Human recombinant BAD protein (Homo sapiens, UniProt Q92934); assay: Surface plasmon resonance analysis (BIAcore); format: binding; details: SPR
T1 construct: purchased MyBiosource, USA MBS143012
T1 sequence (Q92934 1-168): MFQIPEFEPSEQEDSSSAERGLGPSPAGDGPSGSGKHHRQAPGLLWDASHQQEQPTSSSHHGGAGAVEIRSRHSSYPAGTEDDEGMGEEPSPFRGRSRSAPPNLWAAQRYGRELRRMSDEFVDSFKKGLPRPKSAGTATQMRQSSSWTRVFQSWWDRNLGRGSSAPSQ
Description: To provide molecular interaction of the most promising candidate, NPB binding affinity to BAD, we performed surface plasmon resonance (SPR) measurements with immobilized BAD subunit using NPB as the analyte. We know that BAD could bind to BAD subunit in vitro. […] The recombinant BAD was immobilized on CM5 sensor chip. To determine the association and dissociation curves, various concentrations of NPB were injected individually onto the surface of a sensor chip coated with BAD. The overlaid sensorgrams shown in FIG. 14 were analyzed collectively.
Molecular interactions were analyzed based on surface plasmon resonance using a BIAcore-2000 system (BIAcore AB, Uppsala, Sweden). Human recombinant BAD protein (Catalog No. MBS143012, MyBiosource, USA) was immobilized on a sensor chip as described by the manufacturer protocol. To examine the interaction of BAD with NPB, various concentrations of NPB (20 to 100 μM) in the running buffer (HBS-EP, pH 7.4, BIAcore AB) were injected onto the surface of the BAD-immobilized sensor chip with a flow rate of 15 μl/min as per the manufacturer's directions. NPB was allowed to interact with BAD subunit for 2 min for association and dissociation, respectively, after which the sensor chip was regenerated by injecting 1 M NaCl for 2 min before the next injection. Using BIA evaluation software 4.1 (BIAcore AB), the kinetic parameters were such as association and dissociation rate constants (ka and kd), dissociation equilibrium constants (Kd) using a 1:1 binding model with mass transfer. Sensograms obtained were overlaid using BIA evaluation software.

[3] = biological target: T2, hBAD Ser99 phosphorylation (Homo sapiens, UniProt Q92934); assay: Western blot of BAD Ser99 phosphorylation in MCF7 cells; format: cell-based
T2 construct: endogenous in cells; host or cells: MCF7 (A6); 25 carcinoma cell lines of seven cancer types (A7)
T2 sequence (Q92934 1-168): T1 sequence (Q92934 1-168)
Description: (A) Sensorgrams obtained by SPR analysis of NPB with the BAD protein subunit. The BAD protein subunit was immobilized onto the surface of a CM5 sensor chip. A solution of NPB at variable concentrations (20-100 μM) was injected to generate result binding responses (RU) recorded as a function of time (sec). The results were analyzed using BIA evaluation 3.1. (B) Western blot (WB) analysis was used to assess the level of Ser99 phosphorylation of BAD in MCF7 cells after treatment with NPB. (Below) Calculated IC50 of NPB from dose-response for BAD phosphorylation (Ser99), BAD and β-ACTIN as in shown above by use of ImageJ software from NIH, USA (http://imagej.nih.gov/ij/). (C) WB analysis was used to assess the level of a multiple proteins involved upstream of BAD in MCF7 cells after treatment with NPB. (D) WB analysis was used to assess the level of a multiple protein involved cell survival and cell proliferation in MCF7 cells after treatment with NPB. For WB analysis, soluble whole cell extracts were run on an SDS-PAGE and immunoblotted as described in methodology. β-ACTIN (ACTB) was used as an input control for cell lysate. The sizes of detected protein bands in kDa are shown on the left side.
Phosphorylation of hBAD at residues Ser-75 (mouse BAD serine residue 112) and Ser-99 (mouse BAD serine residue 136) are crucial in regulating the activity of the BCL-2 family of anti-apoptotic proteins. hBAD phosphorylation either at Ser-75 or Ser99 (or the corresponding residues in mouse bad) results in loss of the ability of hBAD to heterodimerize with BCL-xL or BCL-2 [15]. To further validate the predicted target, we first analyzed the effect of NPB on phosphorylation of hBAD at Ser99 by western blot analysis.

In the case of `O=C(NC1CCCC1)c1cccc(C(c2ccccc2O)N2CCN(c3cccc(Cl)c3Cl)CC2)c1` (stereo not shown) [NPB, N-cyclopentyl-3-((4-(2,3-dichlorophenyl)piperazin-1-yl)(2-hydroxyphenyl)methyl) benzamide], the “apoptosis in cancer cell lines” value [1] is reported as “significantly enhanced; also recorded: induce apoptotic cell death”, the Kd ([2]; 1:1 binding model with mass transfer, read-out: dissociation equilibrium constants (Kd)) is reported as 37.1 µM and the kon ([2]; immobilized BAD, NPB 20 to 100 μM, read-out: association rate constant) is reported as 1400 M⁻¹ s⁻¹. The koff ([2]; immobilized BAD, NPB 20 to 100 μM, read-out: dissociation rate constant) was 0.054 s⁻¹, the “phosphorylation of hBAD Ser99” value [3] was “dose dependent decrease” and the “total hBAD protein” value [3] was “without a significant change”. It also gave an EC50 ([3]; ImageJ, read-out: EC50 for inhibition of BAD Ser99 phosphorylation) of 0.41 ± 0.21 µM.
